# In publication PMC4491105, “Synthesis and anticancer activity of thiosubstituted purines” (Medicinal Chemistry Research, 2015):
# Entries after “also recorded” stand apart in the source; their conditions may differ.
# Experiments:
# [1] = test system: SNB-19 (human glioblastoma); test: Antiproliferative WST-1 assay, glioblastoma SNB-19; assay type: cell-based; settings: for EC50: Homo sapiens, SNB-19, 72 h, read-out: Antiproliferative activity EC50 SBN-19; for EC50 / Antiproliferative activity EC50 SBN-19 / Activity against SNB-19 cell line (in words): SNB-19 cells; for EC50 / Antiproliferative activity EC50 SBN-19: 72 h exposure, WST-1; for Activity against SNB-19 cell line (in words): compared with azathioprine
# Protocol: (§1) Compounds were evaluated for their anticancer activity using […] cultured cell lines: SNB-19 (human glioblastoma, DSMZ—German Collection of Microorganisms and Cell Cultures, Braunschweig, Germany), C-32 (human amelanotic melanoma, ATCC—American Type Culture Collection, Manassas, VA, USA), T47D (human ductal breast epithelial tumor cell line, ATCC, Manassas, VA, USA), and HFF-1 (human fibroblast cell line, ATCC, Manassas, VA, USA). The cultured cells were kept at 37 °C and 5 % CO2. The cells were seeded (1 × 10^4 cells/well/100 μl DMEM supplemented with 10 % FCS and streptomycin and penicillin) using 96-well plates (Corning).
# (§2) In recent years, tetrazolium salts have been described which can be used for the measurement of cell proliferation and viability. The tetrazolium salts are cleaved to formazan by cellular enzymes. An expansion in the number of viable cells results in an increase in the overall activity of mitochondrial dehydrogenases in the sample. This augmentation in enzyme activity leads to an increase in the amount of formazan dye formed, which directly correlates with the number of metabolically active cells in the culture. The formazan dye produced by metabolically active cells is quantified by a scanning ELISA reader by measuring the absorbance of the dye solution at appropriate wavelengths (λ = 420–480 nm with a reference wavelength λ = 600 nm).
# (§3) Antiproliferative effect of compounds was determined using the Cell Proliferation Reagent WST-1 assay (Roche Diagnostics, Mannheim, Germany). After exposure to tested compounds (at concentrations between 0 and 100 μg/ml) for 72 h, cells were incubated with WST-1 (10 μl) for 1 h, and the absorbance of the samples against a background control was read at 450 nm using with a reference wavelength λ = 600 nm a microplate reader. Results are expressed as means of at least two independent experiments performed in triplicate.
# [2] = test system: HFF-1 (human fibroblast cell line); test: Antiproliferative WST-1 assay, normal fibroblasts HFF-1 (toxicity control); assay type: cell-based
# Protocol: as §1, §2, §3
# [3] = test system: T47D (human ductal breast epithelial tumor cell line); test: Antiproliferative WST-1 assay, breast tumor T47D; assay type: cell-based; settings: T47D cells; for EC50: Homo sapiens, read-out: Antiproliferative activity EC50 T47-D
# Protocol: as §1, §2, §3
# [4] = test system: C-32 (human amelanotic melanoma); test: Antiproliferative WST-1 assay, melanoma C-32; assay type: cell-based; settings: C-32 cells; for EC50: Homo sapiens, C32
# Protocol: as §1, §2, §3
# [5] = normal human fibroblasts HFF-1, 72 h exposure, WST-1
EC50 [1],"EC50 ([3]; 72 h exposure, WST-1)","EC50 ([4]; 72 h exposure, WST-1)",SMILES,"EC50 [2, 5]",further results
37.2 µg/mL,39 µg/mL,35.6 µg/mL,"Cn1cnc([N+](=O)[O-])c1Sc1ncnc2nc[nH]c12 [Azathioprine, reference compound]",55.9 µg/mL,
,,,"N.N.[Cl][Pt][Cl] [Cisplatin, reference compound]",,"Antiproliferative activity EC50 SBN-19 [1]: 4.45 µg/mL; Antiproliferative activity EC50 HFF-1 [2, 5]: 30.00 µg/mL; Antiproliferative activity EC50 T47-D ([3]; 72 h exposure, WST-1): 8.79 µg/mL; Antiproliferative activity EC50 C-32 ([4]; 72 h exposure, WST-1): 6.28 µg/mL"
17.9 µg/mL,41.1 µg/mL,21.8 µg/mL,Cn1cnc([N+](=O)[O-])c1Sc1nc(Cl)c2c(ncn2C)n1 [Compound 2a],> 50 µg/mL,Activity against SNB-19 cell line (in words) [1]: more active than azathioprine; Activity against C-32 cell line (in words) [4]: more active than azathioprine
33.3 µg/mL,49.6 µg/mL,35.3 µg/mL,C=CCSc1nc(Sc2c([N+](=O)[O-])ncn2C)nc2ncn(C)c12 [Compound 2b],> 50 µg/mL,Activity against SNB-19 cell line (in words) [1]: more active than azathioprine; Activity against C-32 cell line (in words) [4]: more active than azathioprine
30.4 µg/mL,> 50 µg/mL,12.8 µg/mL,Cn1cnc([N+](=O)[O-])c1Sc1nc(Cl)nc2ncn(C)c12 [Compound 3a],34.9 µg/mL,Activity against SNB-19 cell line (in words) [1]: more active than azathioprine; Activity against C-32 cell line (in words) [4]: more active than azathioprine; also recorded: good activity
> 50 µg/mL,> 50 µg/mL,> 50 µg/mL,COc1nc(Sc2c([N+](=O)[O-])ncn2C)c2c(ncn2C)n1 [Compound 3b],> 50 µg/mL,
> 50 µg/mL,48.6 µg/mL,> 50 µg/mL,CSc1nc(Sc2c([N+](=O)[O-])ncn2C)c2c(ncn2C)n1 [Compound 3c],> 50 µg/mL,
28.8 µg/mL,41.3 µg/mL,22.5 µg/mL,CCN(CC)CCSc1nc(Cl)nc2ncn(C)c12 [Compound 4a],> 50 µg/mL,
< 10 µg/mL,> 50 µg/mL,> 50 µg/mL,CN(C)CCCSc1nc(Cl)nc2ncn(C)c12 [Compound 4b],> 50 µg/mL,Antiproliferative activity EC50 SBN-19 [1]: 8.45 µg/mL
< 10 µg/mL,24 µg/mL,33.5 µg/mL,CCN(CC)CCSc1nc(SCCN(CC)CC)c2c(ncn2C)n1 [Compound 4c],40 µg/mL,Antiproliferative activity EC50 SBN-19 [1]: 9.82 µg/mL
36.3 µg/mL,> 50 µg/mL,> 50 µg/mL,CN(C)CCCSc1nc(SCCCN(C)C)c2c(ncn2C)n1 [Compound 4d],> 50 µg/mL,
< 10 µg/mL,38.4 µg/mL,27.1 µg/mL,Cn1cnc2nc(SCCN3CCCC3)nc(SCCN3CCCC3)c21 [Compound 4e],35.4 µg/mL,Antiproliferative activity EC50 SBN-19 [1]: 7.95 µg/mL
< 10 µg/mL,32.2 µg/mL,21.8 µg/mL,Cn1cnc2nc(SCCN3CCCCC3)nc(SCCN3CCCCC3)c21 [Compound 4f],45.5 µg/mL,Antiproliferative activity EC50 SBN-19 [1]: 9.18 µg/mL
> 50 µg/mL,> 50 µg/mL,> 50 µg/mL,Cn1cnc2nc(SCCN3CCOCC3)nc(SCCN3CCOCC3)c21 [Compound 4g],> 50 µg/mL,
30.9 µg/mL,44.3 µg/mL,35.4 µg/mL,"C#CCSc1nc(Cl)nc2ncn(C)c12 [Compound 5a, 2-chloro-6-(prop-2-ynylthio)-7-methylpurine]",49 µg/mL,melting point: 183 to 184 °C
5 µg/mL,46 µg/mL,7.58 µg/mL,"Cn1cnc2nc(Cl)nc(SCC#CCN3CCCC3)c21 [Compound 5b, 2-chloro-6-(4-N-pyrrolidinylbut-2-ynylthio)-7-methylpurine]",43.1 µg/mL,Toxicity against normal fibroblasts HFF-1 (in words) ([2]; HFF-1 cells): weak active; Activity against T47D cell line (in words) [3]: weak active; melting point: 129 to 130 °C
> 50 µg/mL,> 50 µg/mL,> 50 µg/mL,"Cn1cnc2nc(Cl)nc(S(N)(=O)=O)c21 [Compound 8a, 2-Chloro-7-methyl-6-purinesulfonamide]",> 50 µg/mL,
35 µg/mL,> 50 µg/mL,> 50 µg/mL,"COc1nc(S(N)(=O)=O)c2c(ncn2C)n1 [Compound 8b, 2-Methoxy-7-methyl-6-purinesulfonamide]",> 50 µg/mL,
> 50 µg/mL,> 50 µg/mL,> 50 µg/mL,"CSc1nc(S(N)(=O)=O)c2c(ncn2C)n1 [Compound 8c, 2-Methylthio-7-methyl-6-purinesulfonamide]",> 50 µg/mL,
> 50 µg/mL,> 50 µg/mL,> 50 µg/mL,"Cn1cnc2nc(S(N)(=O)=O)nc(S(N)(=O)=O)c21 [Compound 8d, 7-Methyl-2,6-purinedisulfonamide]",> 50 µg/mL,
> 50 µg/mL,> 50 µg/mL,> 50 µg/mL,"Cn1cnc2nc(Cl)nc(SN)c21 [Compound 10a, 2-Chloro-7-methyl-6-purinesulfenamide]",> 50 µg/mL,

SMILES,EC50 [1],"EC50 ([3]; 72 h exposure, WST-1)","EC50 ([4]; 72 h exposure, WST-1)","EC50 [2, 5]",further results
"Cn1cnc([N+](=O)[O-])c1Sc1nc(Sc2c([N+](=O)[O-])ncn2C)c2c(ncn2C)n1 [Compound 3d, 7-methyl-2,6-di(1-methyl-4-nitroimidazol-5-ylthio)purine]",> 50 µg/mL,> 50 µg/mL,> 50 µg/mL,> 50 µg/mL,"Anticancer activity against tested cell lines (in words) ([1]; SNB-19, C-32 and T47D cell lines overall): inactive"
